Reference: US12077503B2, “Substituted cyclic amides and their use as herbicides” (FMC CORPORATION, priority 2015, dated 2024)
Where two headings read alike, the source gives them in different places.

Columns and labels:
Assay in all cases: Test A preemergence
Format in all cases: in vivo
[1] = test system: giant foxtail (Setaria faberii); details: Setaria faberi, pre-emergence, 240 h; for pest or weed control at 125 g/ha: 125 g ai/ha; for pest or weed control at 500 g/ha: 500 g ai/ha
Procedure, shortened: (§1)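 Seeded soil received test chemicals as a preemergence directed spray, and seedlings at one to two leaves, 2–10 cm tall, received them postemergence, in a non-phytotoxic, surfactant-containing solvent mixture. Pots were held in a greenhouse for approximately 10 d, then rated for injury from 0, no effect, to 100, complete control.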

[2] = test system: barnyardgrass (Echinochloa crus-galli); details: Echinochloa crus-galli, pre-emergence, 240 h; for pest or weed control at 125 g/ha: 125 g ai/ha; for pest or weed control at 500 g/ha: 500 g ai/ha
Procedure, shortened: as §1

[3] = test system: ryegrass, Italian (Italian ryegrass, Lolium multiflorum); details: Lolium multiflorum, pre-emergence, 240 h; for pest or weed control at 125 g/ha: 125 g ai/ha; for pest or weed control at 500 g/ha: 500 g ai/ha
Procedure, shortened: as §1

[4] = test system: ragweed (common ragweed, Ambrosia elatior); details: Ambrosia artemisiifolia, pre-emergence, 240 h; for pest or weed control at 125 g/ha: 125 g ai/ha; for pest or weed control at 500 g/ha: 500 g ai/ha
Procedure, shortened: as §1

[5] = test system: Kochia (Kochia scoparia); details: Bassia scoparia, pre-emergence, 240 h; for pest or weed control at 125 g/ha: 125 g ai/ha; for pest or weed control at 500 g/ha: 500 g ai/ha
Procedure, shortened: as §1

[6] = test system: pigweed (Amaranthus retroflexus); details: Amaranthus retroflexus, pre-emergence, 240 h; for pest or weed control at 125 g/ha: 125 g ai/ha; for pest or weed control at 500 g/ha: 500 g ai/ha
[7] = preemergence, visual rating after approx. 10 d, 0 to 100 scale where 0 is no effect and 100 is complete control, read-out: Plant response rating, Foxtail, Giant
[8] = Preemergence, visual injury vs untreated controls after approximately 10 d, read-out: Foxtail, Giant plant response rating (0 to 100 scale where 0 is no effect and 100 is complete control)
[9] = preemergence, visual rating after approx. 10 d, 0 to 100 scale where 0 is no effect and 100 is complete control, read-out: Plant response rating, Barnyardgrass
[10] = Preemergence, visual injury vs untreated controls after approximately 10 d, read-out: Barnyardgrass plant response rating (0 to 100 scale where 0 is no effect and 100 is complete control)
[11] = preemergence, visual rating after approx. 10 d, 0 to 100 scale where 0 is no effect and 100 is complete control, read-out: Plant response rating, Ryegrass, Italian
[12] = Preemergence, visual injury vs untreated controls after approximately 10 d, read-out: Ryegrass, Italian plant response rating (0 to 100 scale where 0 is no effect and 100 is complete control)
[13] = preemergence, visual rating after approx. 10 d, 0 to 100 scale where 0 is no effect and 100 is complete control, read-out: Plant response rating, Ragweed
[14] = Preemergence, visual injury vs untreated controls after approximately 10 d, read-out: Ragweed plant response rating (0 to 100 scale where 0 is no effect and 100 is complete control)
[15] = preemergence, visual rating after approx. 10 d, 0 to 100 scale where 0 is no effect and 100 is complete control, read-out: Plant response rating, Kochia
[16] = Preemergence, visual injury vs untreated controls after approximately 10 d, read-out: Kochia plant response rating (0 to 100 scale where 0 is no effect and 100 is complete control)
[17] = preemergence, visual rating after approx. 10 d, 0 to 100 scale where 0 is no effect and 100 is complete control, read-out: Plant response rating, Pigweed
[18] = Preemergence, visual injury vs untreated controls after approximately 10 d, read-out: Pigweed plant response rating (0 to 100 scale where 0 is no effect and 100 is complete control)

Row | SMILES | pest or weed control at 125 g/ha [1, 7] | pest or weed control at 500 g/ha [1, 8] | pest or weed control at 125 g/ha [2, 9] | pest or weed control at 500 g/ha [2, 10] | pest or weed control at 125 g/ha [3, 11] | pest or weed control at 500 g/ha [3, 12] | pest or weed control at 125 g/ha [4, 13] | pest or weed control at 500 g/ha [4, 14] | pest or weed control at 125 g/ha [5, 15] | pest or weed control at 500 g/ha [5, 16] | pest or weed control at 125 g/ha [6, 17] | pest or weed control at 500 g/ha [6, 18] | also measured
1 | CS(=O)(=O)c1ccccc1NC(=O)[C@H]1C(=O)NC[C@@H]1c1ccc(OC(F)F)cc1 [Compound 787] | 70% | 90% | 20% | 70% | 0% | 0% | 70% | 70% | 80% | 90% | 50% | 80% | 
2 | CSc1ccccc1NC(=O)[C@H]1C(=S)NC[C@@H]1c1ccc(C)c(C)c1 [Compound 766] | 0% |  | 70% |  | 0% |  | 0% |  | 0% |  | 0% |  | pest or weed control at 500 g/ha ([1]; preemergence, 0 to 100 scale, 0 = no effect, 100 = complete control, read-out: Plant response rating, Foxtail, Giant): 40%; pest or weed control at 500 g/ha ([2]; preemergence, 0 to 100 scale, 0 = no effect, 100 = complete control, read-out: Plant response rating, Barnyardgrass): 90%; pest or weed control at 500 g/ha ([4]; preemergence, 0 to 100 scale, 0 = no effect, 100 = complete control, read-out: Plant response rating, Ragweed): 0%; pest or weed control at 500 g/ha ([5]; preemergence, 0 to 100 scale, 0 = no effect, 100 = complete control, read-out: Plant response rating, Kochia): 0%; pest or weed control at 500 g/ha ([6]; preemergence, 0 to 100 scale, 0 = no effect, 100 = complete control, read-out: Plant response rating, Pigweed): 0%
3 | CN1C[C@H](c2cc(F)cc(F)c2)[C@@H](C(=O)Nc2ncccc2F)C1=O [Compound 783] | 0% | 80% | 0% | 70% | 0% | 0% | 0% | 0% | 30% | 50% | 0% | 0% | 
4 | Cc1c(F)cccc1NC(=O)[C@H]1C(=O)N(C)C[C@@H]1c1ccc(OC(F)F)cc1 [Compound 1213] |  |  |  |  |  |  |  |  |  |  |  |  | pest or weed control at 125 g/ha ([1]; preemergence, visual injury rating, 0 to 100 scale where 0 is no effect and 100 is complete control, approximately 10 d, read-out: Foxtail, Giant plant response rating): 100%; pest or weed control at 500 g/ha ([1]; preemergence, 0 to 100 scale where 0 is no effect and 100 is complete control, read-out: Foxtail, Giant plant response rating): 100%; pest or weed control at 125 g/ha ([2]; preemergence, visual injury rating, 0 to 100 scale where 0 is no effect and 100 is complete control, approximately 10 d, read-out: Barnyardgrass plant response rating): 100%; pest or weed control at 500 g/ha ([2]; preemergence, 0 to 100 scale where 0 is no effect and 100 is complete control, read-out: Barnyardgrass plant response rating): 100%; pest or weed control at 125 g/ha ([3]; preemergence, visual injury rating, 0 to 100 scale where 0 is no effect and 100 is complete control, approximately 10 d, read-out: Ryegrass, Italian plant response rating): 20%; pest or weed control at 500 g/ha ([3]; preemergence, 0 to 100 scale where 0 is no effect and 100 is complete control, read-out: Ryegrass, Italian plant response rating): 70%; pest or weed control at 125 g/ha ([4]; preemergence, visual injury rating, 0 to 100 scale where 0 is no effect and 100 is complete control, approximately 10 d, read-out: Ragweed plant response rating): 50%; pest or weed control at 500 g/ha ([4]; preemergence, 0 to 100 scale where 0 is no effect and 100 is complete control, read-out: Ragweed plant response rating): 70%; pest or weed control at 125 g/ha ([5]; preemergence, visual injury rating, 0 to 100 scale where 0 is no effect and 100 is complete control, approximately 10 d, read-out: Kochia plant response rating): 70%; pest or weed control at 500 g/ha ([5]; preemergence, 0 to 100 scale where 0 is no effect and 100 is complete control, read-out: Kochia plant response rating): 80%; pest or weed control at 125 g/ha ([6]; preemergence, visual injury rating, 0 to 100 scale where 0 is no effect and 100 is complete control, approximately 10 d, read-out: Pigweed plant response rating): 50%; pest or weed control at 500 g/ha ([6]; preemergence, 0 to 100 scale where 0 is no effect and 100 is complete control, read-out: Pigweed plant response rating): 80%
